In patent publication US20220168430A1, “THERAPEUTIC METHODS FOR TREATING HEPATITIS B” (priority 2019, published 2022):
Where “and” joins values, the source holds several entries; their conditions need not be identical. Equal entries are not always repeated. Where two headings read alike, the source gives them in different places.

Assays:
HBV rcDNA = test: Dual agent combination in HepDE19 cells, rcDNA by Quantigene 2.0 bDNA assay (Examples 5-8); format: cell-based, HBV; HepDE19 (HepG2 human hepatocarcinoma derived); conditions: for inhibition at 0.002 µM / inhibition at 0.007 µM / inhibition at 0.02 µM / inhibition at 0.06 µM / inhibition at 0.001 µM / inhibition at 0.003 µM / inhibition at 0.005 µM / inhibition at 0.01 µM / inhibition at 0.04 µM / inhibition at 0.08 µM / inhibition at 0.16 µM / inhibition at 0.32 µM / EC50 / inhibition at 0.009 µM / inhibition at 0.083 µM / inhibition at 0.75 µM / inhibition at 0.039 µM / inhibition at 0.156 µM / inhibition at 1.25 µM: Hepatitis B virus; for inhibition at 0.002 µM: TAF 0.002 μM alone; for inhibition at 0.007 µM: TAF 0.007 μM alone; for inhibition at 0.06 µM: TAF 0.060 μM alone; for inhibition at 0.001 µM: TAF 0.001 μM alone; for inhibition at 0.003 µM: TAF 0.003 μM alone; for inhibition at 0.005 µM: TAF 0.005 μM alone; for inhibition at 0.04 µM: TAF 0.040 μM alone; for inhibition at 0.08 µM: TAF 0.080 μM alone; for inhibition at 0.16 µM: TAF 0.160 μM alone; for inhibition at 0.32 µM: TAF 0.320 μM alone; for inhibition at 0.039 µM: TDF 0.039 μM alone; for inhibition at 0.156 µM: TDF 0.156 μM alone; for inhibition at 1.25 µM: TDF 1.250 μM alone
Procedure: In vitro dual agent combination studies were conducted using the method of Prichard and Shipman 1990 (Prichard M N, Shipman C, Jr. 1990. Antiviral Res 14:181-205). The HepDE19 cell culture system is a HepG2 (human hepatocarcinoma) derived cell line that supports HBV DNA replication and cccDNA formation under control the control of a CMV Tet-off promoter system (Guo et al. 2007. J Virol 81:12472-84). HepDE19 (50,000 cells/well) were plated in 96 well collagen-coated tissue-culture treated microtiter plates in DMEM/F12 medium supplemented with 10% fetal bovine serum+1% penicillin-streptomycin with tetracycline (1 μg/mL) and incubated in a humidified incubator at 37° C. and 5% CO2 overnight. Next day, the cells were switched to fresh medium without tetracycline and incubated for 4 hrs at 37° C. and 5% CO2. The cells were switched to fresh medium and treated with inhibitor A and inhibitor B, at concentration range spanning their respective EC50 values. […] The two inhibitors were tested both singly as well as in combinations in a checkerboard fashion such that each concentration of inhibitor A was combined with each concentration of inhibitor B to determine their combination effects on inhibition of rcDNA production. There were four replicates of each concentration combination in each experiment. The plates were incubated for 7 days in a humidified incubator at 37° C. and 5% CO2. The level of rcDNA present in the wells was measured using a Quantigene 2.0 bDNA assay kit (Affymetrix, Santa Clara, Calif.) with HBV specific custom probe set (genotype D ayw) and according to the manufacturer's instructions and read using a luminescence plate reader and the relative luminescence units (RLU) data generated from each well was calculated as % inhibition of the untreated control wells and analyzed using the MacSynergy II program to determine whether the combinations were synergistic, additive or antagonistic using the interpretive guidelines established by Prichard and Shipman (Prichard M N, Shipman C, Jr. 1990. […] Each experiment was repeated at least three times and the averages and standard deviations of individual determinations was calculated to derive the conclusion. Concurrently, in each experiment, the effect of inhibitor combinations on cell viability was assessed using replicate plates in triplicates that were used to determine the ATP content as a measure of cell viability using the Cell-Titer Glo reagent (Promega, Madison, Wis.) as per the manufacturer's instructions.

HBV DNA [1] = test: HBV DNA in culture supernatants of HBV-infected PHH by qPCR, single agents and double combinations (Examples 1-4); format: cell-based, HBV genotype D; primary human hepatocytes; conditions: Hepatitis B virus
Procedure: (§1) The day PHH seeding date was defined as day 0.
The PHH were infected with 400 HBV GE/cell of HBV genotype D type HBV on day 1.
(§2) The test articles were further diluted with the culture medium to the final test concentrations.
(§3) All the test articles were further diluted 100 times with the culture medium. The final concentration of DMSO in the culture medium was […].
The compounds were tested at 7 concentrations, 3-fold dilution, in triplicate.
Four two-way combinations were performed on a 5×5 matrix, in triplicate plates. Transfection reagent was present in all wells. The culture medium containing the articles were refreshed every 1 or 2 days.
(§4) DNA in the culture supernatants harvested on days 8 was isolated with QIAamp 96 DNA Blood Kit (Qiagen-51162). For each sample, 100 μl of each culture supernatant was used to extract DNA. The DNA was eluted with 180 μl of AE. HBV DNA in the culture supernatants was quantified by quatitative PCR using primers and probes outlined in Table 3. Percent inhibition of HBV DNA was calculated with the formula below:
(§5) % Inh. HBV DNA=[1−value of sample/AVG. value of Medium control]×100.
(§6) Results of double combination studies were analyzed using MacSynergy II software (Prichard and Shipman, 1992).

HBV DNA [2] = test: HBV DNA in culture supernatants of HBV-infected PHH by qPCR (Examples 15-17); format: cell-based, HBV genotype D; primary human hepatocytes; conditions: HBV DNA
Procedure: as §1
The PHH were infected with 400 HBV GE/cell of D type HBV on day 1.
as §2, §3
Four two-way combinations were performed on a 5×5 matrix, in triplicate plates. Transfection reagent was present in all wells.
as §4, with “well-established” for “primers”, “commonly used procedures.” for “probes outlined in Table 3.”
as §5, §6

HBV DNA [3] = test: as above; format: cell-based, HBV genotype D; primary human hepatocytes; conditions: Hepatitis B virus, determined in an earlier separate experiment
HBsAg = HBsAg in culture supernatants of HBV-infected PHH by ELISA (Examples 15-17); conditions: for AVERAGE % INHIBITION: HBsAg
Procedure: All the test articles were further diluted 100 times with the culture medium. The final concentration of DMSO in the culture medium was 2%.
HBsAg in the culture supernatants harvested on days 8 was measured using the HBsAg/ELISA kit (Autobio) according to the manual. The samples were diluted 4-fold with PBS to get the signal in the range of the standard curve. Percent inhibition of HBsAg was calculated with the following formula:
% Inh. HBsAg=[1−HBsAg quantity of sample/HBV quantity of DMSO control]×100

[4] = HepDE19, read-out: AVERAGE % INHIBITION, Expt 1
[5] = HepDE19, read-out: AVERAGE % INHIBITION, Expt 2
[6] = HepDE19, read-out: AVERAGE % INHIBITION, Expt 3
[7] = HepDE19, read-out: AVERAGE % INHIBITION, Expt 4
[8] = HepDE19, Expt 2, read-out: ADDITIVE INHIBITION
[9] = HepDE19, Expt 2, read-out: AVERAGE % INHIBITION

CC(C)OC(=O)[C@H](C)N[P@](=O)(CO[C@H](C)Cn1cnc2c(N)ncnc21)Oc1ccccc1 [TAF, tenofovir alafenamide]
inhibition at 0.002 µM (HBV rcDNA; [4]): -55.3%
inhibition at 0.007 µM (HBV rcDNA; [4]): -30.2%
inhibition at 0.02 µM (HBV rcDNA; HepDE19, read-out: AVERAGE % INHIBITION, Expt 1, TAF 0.020 μM alone): -1.17%
inhibition at 0.06 µM (HBV rcDNA; [4]): 67%
inhibition at 0.002 µM (HBV rcDNA; [5]): 9.84%
inhibition at 0.007 µM (HBV rcDNA; [5]): 24.9%
inhibition at 0.02 µM (HBV rcDNA; HepDE19, read-out: AVERAGE % INHIBITION, Expt 2, TAF 0.020 μM alone): 65.5%
inhibition at 0.06 µM (HBV rcDNA; [5]): 89.4%
inhibition at 0.001 µM (HBV rcDNA; [6]): -134%
inhibition at 0.003 µM (HBV rcDNA; [6]): -49.2%
inhibition at 0.005 µM (HBV rcDNA; [6]): -42.3%
inhibition at 0.01 µM (HBV rcDNA; HepDE19, read-out: AVERAGE % INHIBITION, Expt 3, TAF 0.010 μM alone): -48.4%
inhibition at 0.02 µM (HBV rcDNA; HepDE19, read-out: AVERAGE % INHIBITION, Expt 3, TAF 0.020 μM alone): -34.3%
inhibition at 0.04 µM (HBV rcDNA; [6]): 37%
inhibition at 0.08 µM (HBV rcDNA; [6]): 57.1%
inhibition at 0.16 µM (HBV rcDNA; [6]): 88%
inhibition at 0.32 µM (HBV rcDNA; [6]): 94.8%
inhibition at 0.001 µM (HBV rcDNA; [7]): 9.66%
inhibition at 0.003 µM (HBV rcDNA; [7]): -0.11%
inhibition at 0.005 µM (HBV rcDNA; [7]): -1.36%
inhibition at 0.01 µM (HBV rcDNA; HepDE19, read-out: AVERAGE % INHIBITION, Expt 4, TAF 0.010 μM alone): 0.94%
inhibition at 0.02 µM (HBV rcDNA; HepDE19, read-out: AVERAGE % INHIBITION, Expt 4, TAF 0.020 μM alone): 36.6%
inhibition at 0.04 µM (HBV rcDNA; [7]): 61.8%
inhibition at 0.08 µM (HBV rcDNA; [7]): 57.2%
inhibition at 0.16 µM (HBV rcDNA; [7]): 83.6%
inhibition at 0.32 µM (HBV rcDNA; [7]): 95.9%
EC50 (HBV rcDNA; HepDE19, read-out: Avg. Inhibitor B EC50): 44 nM
EC50 (HBV DNA [1]): 0.083 nM

CC(C)OC(=O)OCOP(=O)(CO[C@H](C)Cn1cnc2c(N)ncnc21)OCOC(=O)OC(C)C.O=C(O)/C=C/C(=O)O [TDF, tenofovir disoproxil fumarate, reference compound]
AVERAGE % INHIBITION (HBV DNA [2]; TDF 0.12 nM alone): 22.22%
AVERAGE % INHIBITION (HBV DNA [2]; TDF 10.0 nM alone): 92.76%
inhibition at 0.00012 µM (HBV DNA [2]; Hepatitis B virus, TDF 0.12 nM alone): 36.1%
inhibition at 0.00037 µM (HBV DNA [2]; Hepatitis B virus, TDF 0.37 nM alone): 44.6%
inhibition at 0.01 µM (HBV DNA [2]; Hepatitis B virus, TDF 10.0 nM alone): 92.5%
SYNERGY PLOT (99%) Bonferroni Adj. 55% (HBV rcDNA): 0
ADDITIVE INHIBITION (HBV rcDNA; Expt 1, TDF 0.009 μM alone): −0.25
ADDITIVE INHIBITION (HBV rcDNA; Expt 1, TDF 0.083 μM alone): 45.88
ADDITIVE INHIBITION (HBV rcDNA; Expt 1, TDF 0.750 μM alone): 98
ADDITIVE INHIBITION (HBV rcDNA; Expt 3, TDF 0.009 μM alone): 32.54
ADDITIVE INHIBITION (HBV rcDNA; Expt 3, TDF 0.083 μM alone): 76.04
ADDITIVE INHIBITION (HBV rcDNA; Expt 3, TDF 0.750 μM alone): 96.97
inhibition at 0.009 µM (HBV rcDNA; HepDE19, Expt 1, TDF 0.009 μM alone): -0.25%
inhibition at 0.083 µM (HBV rcDNA; HepDE19, Expt 1, TDF 0.083 μM alone): 45.9%
inhibition at 0.75 µM (HBV rcDNA; HepDE19, Expt 1, TDF 0.750 μM alone): 98%
inhibition at 0.01 µM (HBV rcDNA; HepDE19, Expt 2, TDF 0.010 μM alone, read-out: ADDITIVE INHIBITION): 4.67%
inhibition at 0.01 µM (HBV rcDNA; HepDE19, Expt 2, TDF 0.010 μM alone, read-out: AVERAGE % INHIBITION): 4.67%
inhibition at 0.02 µM (HBV rcDNA; HepDE19, Expt 2, TDF 0.020 μM alone, read-out: ADDITIVE INHIBITION): -12.9%
inhibition at 0.02 µM (HBV rcDNA; HepDE19, Expt 2, TDF 0.020 μM alone, read-out: AVERAGE % INHIBITION): -12.9%
inhibition at 0.039 µM (HBV rcDNA; [8]): 35.9%
inhibition at 0.039 µM (HBV rcDNA; [9]): 35.9%
inhibition at 0.156 µM (HBV rcDNA; [8]): 77.1%
inhibition at 0.156 µM (HBV rcDNA; [9]): 77.1%
inhibition at 1.25 µM (HBV rcDNA; [8]): 98.4%
inhibition at 1.25 µM (HBV rcDNA; [9]): 98.4%
inhibition at 0.009 µM (HBV rcDNA; HepDE19, Expt 3, TDF 0.009 μM alone): 32.5%
inhibition at 0.083 µM (HBV rcDNA; HepDE19, Expt 3, TDF 0.083 μM alone): 76%
inhibition at 0.75 µM (HBV rcDNA; HepDE19, Expt 3, TDF 0.750 μM alone): 97%
EC50 (HBV rcDNA; HepDE19, combination studies with Cmpd 1, read-out: Avg. Inhibitor B EC50): 64 nM
EC50 (HBV DNA [3]): 0.42 nM
AVERAGE % INHIBITION (HBsAg; TDF 0.12 nM alone): −1.47% and −10.84%
AVERAGE % INHIBITION (HBsAg; TDF 0.37 nM alone): −1.3% and −9.3%
EC50 (HBsAg; Hepatitis B virus): > 10 nM
